# Read-outs that look alike come from different tables or passages of the source.
# Assays:
# Assay type in all cases: cell-based, human
# [1] = system: p-ERK in NCI-H441 cells (KRAS G12V mutation); test: Cell p-ERK assay (HTRF) in NCI-H441 cells; details: NCI-H441 cells, 3 h compound incubation, HTRF p-ERK T202/Y204, read-out: H441 p-ERK IC50
# Summary of the method: (§1)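 Seed 10000 AsPC-1 or 20000 NCI-H441 cells/well, overnight 37 °C/5% CO2. Cpd 3.16-fold series, 0.1% DMSO final, 3 h. Lyse 30 min, HTRF p-ERK (T202/Y204) Ab 4 h. IC50: 4-parameter fit of IR% normalised to DMSO and blank.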
# NCI-H441 cells = test: 3D cell proliferation assay (CellTiter Glo-3D), NCI-H441; details: medium with 2% FBS, read-out: H441 AP IC50
# Summary of the method: (§2)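 Cells were seeded at 800 per well in RPMI-1640 containing 2% FBS and left overnight. Compounds in 3.16-fold dilution series were then added at 0.1% DMSO and incubated 5 days at 37 °C. Viability was read by CellTiter-Glo 3D luminescence and IC50 values fitted by four-parameter regression.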
# [2] = system: p-ERK in AsPC-1 cells (KRAS G12D mutation); test: Cell p-ERK assay (HTRF) in AsPC-1 cells; details: AsPC-1 cells, 3 h compound incubation, HTRF p-ERK T202/Y204, read-out: AsPC-1 p-ERK IC50
# Summary of the method: as §1
# [3] = system: AsPC-1 cells (KRAS G12D mutation); test: 3D cell proliferation assay (CellTiter Glo-3D), AsPC-1; details: medium with 2% FBS, read-out: AsPC-1 AP IC50
# Summary of the method: as §2
# [4] = Homo sapiens, NCI-H441, 3D cell proliferation (CellTiter Glo-3D)
# [5] = Homo sapiens, ASPC1, 3D cell proliferation (CellTiter Glo-3D)
# [6] = 3D cell proliferation (CellTiter Glo-3D)
"IC50 ([1]; Homo sapiens, NCI-H441, 3 h)",IC50 (NCI-H441 cells; [4]),"IC50 ([2]; Homo sapiens, ASPC1, 3 h)","IC50 [3, 5]",IC50 [1],IC50 (NCI-H441 cells; [6]),IC50 [2],"IC50 [3, 6]",Compound
0.2 nM,0.24 nM,0.33 nM,0.36 nM,,,,,"CCn1c(-c2cc(C#CC(C)(C)N3CCCOCC3)cnc2[C@H](C)OC)c2c3cc(ccc31)-c1csc(n1)C[C@H](NC(=O)[C@H]1[C@H](C)[C@@H]1C)C(=O)N1CCC[C@H](N1)C(=O)OCC(C)(C)C2 (atropisomer, axis not shown; (Ra)) [Compound Z625, (1r,2R,3S)—N-((6S,4S,Z)-1^1-ethyl-(Ra)-1^2-(2-((S)-1-methoxyethyl)-5-(3-(1,4-oxazepan-4-yl)-3-methylbut-1-yn-1-yl)pyridin-3-yl)-10,10-dimethyl-5,7-dioxo-6^1,6^2,6^3,6^4,6^5,6^6hexahydro-1^1H-8-oxa-2(4,2)-thiazola-1(5,3)-indola-6(1,3)-pyridazinacycloundecaphane-4-yl)-2,3-dimethylcyclopropane-1-carboxamide]"
,,,,0.35 nM,0.34 nM,0.31 nM,0.62 nM,"CCn1c(-c2cc(C#CC(C)(C)N3CCC(OC)CC3)cnc2[C@H](C)OC)c2c3cc(ccc31)-c1csc(n1)C[C@H](NC(=O)[C@H]1[C@H](C)[C@@H]1C)C(=O)N1CCC[C@H](N1)C(=O)OCC(C)(C)C2 (atropisomer, axis not shown; (Ra)) [Compound Z628-1, (1r,2R,3S)—N-((6^3S,4S,Z)-1^1-ethyl-(Ra)-1^2-(2-((S)-1-methoxyethyl)-5-(3-(4-methoxypiperidin-1-yl)-3-methylbut-1-yn-1-yl)pyridin-3-yl)-10,10-dimethyl-5,7-dioxo-6^1,6^2,6^3,6^4,6^5,6^6hexahydro-1^1H-8-oxa-2(4,2)-thiazola-1(5,3)-indola-6(1,3)-pyridazinacycloundecaphane-4-yl)-2,3-dimethylcyclopropane-1-carboxamide]"
0.29 nM,0.36 nM,0.4 nM,0.65 nM,,,,,"CCn1c(-c2cc(C#C[C@]3(C)CCCN3C)cnc2[C@H](C)OC)c2c3cc(ccc31)-c1csc(n1)C[C@H](NC(=O)[C@H]1[C@H](C)[C@@H]1C)C(=O)N1CCC[C@H](N1)C(=O)OCC(C)(C)C2 (atropisomer, axis not shown; (Ra)) [Compound Z642]"
0.22 nM,0.3 nM,0.51 nM,0.64 nM,,,,,"CCn1c(-c2cc(C#C[C@@]3(C)CCCN3C)cnc2[C@H](C)OC)c2c3cc(ccc31)-c1csc(n1)C[C@H](NC(=O)[C@H]1[C@H](C)[C@@H]1C)C(=O)N1CCC[C@H](N1)C(=O)OCC(C)(C)C2 (atropisomer, axis not shown; (Ra)) [Compound Z643, (1r,2R,3S)—N-((6^3S,4S,Z)—(Ra)-1-(5-(((R)-1,2-dimethylpyrrolidin-2-yl)ethynyl)-2-((S)-1-methoxyethyl)pyridin-3-yl)-1^1-ethyl-10,10-dimethyl-5,7-dioxo-6^1,6^2,6^3,6^4,6^5,6^6-hexahydro-1^1H-8-oxa-2(4,2)-thiazola-1(5,3)-indola-6(1,3)-pyridazinacycloundecaphane-4-yl)-2,3-dimethylcyclopropane-1-carboxamide]"
,,,,0.48 nM,0.5 nM,0.15 nM,0.81 nM,"CCn1c(-c2cc(C#CC3(N4CCCOCC4)CC3)cnc2[C@H](C)OC)c2c3cc(ccc31)-c1csc(n1)C[C@H](NC(=O)[C@H]1[C@H](C)[C@@H]1C)C(=O)N1CCC[C@H](N1)C(=O)OCC(C)(C)C2 (atropisomer, axis not shown; (Ra)) [Compound Z645, (1r,2R,3S)—N-((4S,Z)—(Ra)-1-(5-((1-(1,4-oxazepan-4-yl)cyclopropyl)ethynyl)-2-((S)-1-methoxyethyl)pyridin-3-yl)-1^1-ethyl-10,10-dimethyl-5,7-dioxo-6^1,6^2,6^3,6^4,6^5,6^6-hexahydro-1^1H-8-oxa-2(4,2)-thiazola-1(5,3)-indola-6(1,3)-pyridazinacycloundecaphane-4-yl)-2,3-dimethylcyclopropane-1-carboxamide]"
4.55 nM,4.06 nM,13.4 nM,21.1 nM,,,,,"CCn1c(-c2cc(N3CCN(C)CC3)cnc2[C@H](C)OC)c2c3cc(ccc31)-c1csc(n1)C[C@H](Nc1nnc3cc(C)ccn13)C(=O)N1CCC[C@H](N1)C(=O)OCC(C)(C)C2 (atropisomer, axis not shown; (Ra)) [Compound Z653, (6^3S,4S,Z)-1^1-ethyl-(Ra)-1^2-(2-((S)-1-methoxyethyl)-5-(4-methylpiperazin-1-yl)pyridin-3-yl)-10,10-dimethyl-4-((7-methyl-[1,2,4]triazolo[4,3-a]pyridin-3-yl)amino)-6^1,6^2,6^3,6^4,6^5,6^6-hexahydro-1^1H-8-oxa-2(4,2)-thiazola-1(5,3)-indola-6(1,3)-pyridazinacycloundecaphane-5,7-dione]"
1.58 nM,0.83 nM,3.99 nM,2.68 nM,,,,,"CCn1c(-c2cc(OCCN3CCOC4(CC4)C3)cnc2[C@H](C)OC)c2c3cc(ccc31)-c1csc(n1)C[C@H](NC(=O)[C@@H]1[C@@H](C)[C@H]1c1ccncn1)C(=O)N1CCC[C@H](N1)C(=O)OCC(C)(C)C2 (atropisomer, axis not shown; (Ra)) [Compound Z661-2, (1R,2S,3R)—N-((6^3S,4S,Z)—(Ra)-1^2-(5-(2-(4-oxa-7-azaspiro[2,5]octan-7-yl)ethoxy)-2-((S)-1-methoxyethyl)pyridin-3-yl)-11-ethyl-10,10-dimethyl-5,7-dioxo-6^1,6^2,6^3,6^4,6^5,6^6-hexahydro-1^1H-8-oxa-2(4,2)-thiazola-1(5,3)-indola-6(1,3)-pyridazinacycloundecaphane-4-yl)-2-methyl-3-(pyrimidin-4-yl)cyclopropane-1-carboxamide]"
5.4 nM,11 nM,34.4 nM,67 nM,,,,,"CCc1ccn2c(N[C@H]3Cc4nc(cs4)-c4ccc5c(c4)c(c(-c4cc(N6CCN(C)CC6)cnc4[C@H](C)OC)n5CC)CC(C)(C)COC(=O)[C@@H]4CCCN(N4)C3=O)nnc2c1 (atropisomer, axis not shown; (Ra)) [Compound Z662, (6^3S,4S,Z)-1^1-ethyl-4-((7-ethyl-[1,2,4]triazolo[4,3-a]pyridin-3-yl)amino)-(Ra)-1^2-(2-((S)-1-methoxyethyl)-5-(4-methylpiperazin-yl)pyridin-3-yl)-10,10-dimethyl-6^1,6^2,6^3,6^4,6^5,6^6-hexahydro-1^1H-8-oxa-2(4,2)-thiazola-1(5,3)-indola-6(1,3)-pyridazinacycloundecaphane-5,7-dione]"
,,,,0.11 nM,0.21 nM,0.32 nM,0.78 nM,"CCn1c(-c2cc(OCCN3CCS(=O)(=O)C(C)(C)C3)cnc2[C@H](C)OC)c2c3cc(ccc31)-c1csc(n1)C[C@H](NC(=O)[C@H]1C[C@@H]1C)C(=O)N1CCC[C@H](N1)C(=O)OCC(C)(C)C2 (atropisomer, axis not shown; (Ra)) [Compound Z665]"
,,,,0.38 nM,0.71 nM,0.63 nM,1.63 nM,"CCn1c(-c2cc(OCC(C)(C)N3CCS(=O)(=O)CC3)cnc2[C@H](C)OC)c2c3cc(ccc31)-c1csc(n1)C[C@H](NC(=O)[C@H]1[C@H](C)[C@@H]1C)C(=O)N1CCC[C@H](N1)C(=O)OCC(C)(C)C2 (atropisomer, axis not shown; (Ra)) [Compound Z667, (1r,2R,3S)—N-((6^1S,4S,Z)—(Ra)-1^2-(5-(2-(1,1-dioxidothiomorpholino)-2-methylpropoxy)-2-((S)-1-methoxyethyl)pyridin-3-yl)-1^1-ethyl-10,10-dimethyl-5,7-dioxo-6^1,6^2,6^3,6^4,6^5,6^6-hexahydro-1^1H-8-oxa-2(4,2)-thiazola-1(5,3)-indola-6(1,3)-pyridazinacycloundecaphane-4-yl)-2,3-dimethylcyclopropane-1-carboxamide]"
0.33 nM,0.23 nM,0.27 nM,0.52 nM,,,,,"CCn1c(-c2cc(C#C[C@H]3COCCN3C)cnc2[C@H](C)OC)c2c3cc(ccc31)-c1csc(n1)C[C@H](NC(=O)[C@H]1[C@H](C)[C@@H]1C)C(=O)N1CCC[C@H](N1)C(=O)OCC(C)(C)C2 (atropisomer, axis not shown; (Ra)) [Compound Z673, (1r,2R,3S)—N-((6^3S,4S,Z)-1^1-ethyl-(Ra)-1^2-(2-((S)-1-methoxyethyl)-5-(((S)-4-methylmorpholin-3-yl)ethynyl)pyridin-3-yl)-10,10-dimethyl-5,7-dioxo-6^1,6^2,6^3,6^4,6^5,6^6hexahydro-1^1H-8-oxa-2(4,2)-thiazola-1(5,3)-indola-6(1,3)-pyridazinacycloundecaphane-4-yl)-2,3-dimethylcyclopropane-1-carboxamide]"
